Experimental data as given in patent US12686701B2, “Substitution of histidine with 2-thiohistidine in bioactive peptides” (University of Vermont and State Agricultural College, priority 2021, dated 2026).
“Also recorded” adds a separate entry of the source. *1 amine or outer side, *2 acyl side, *3 side chain or, on linkers, in order; H or OH if unused. Where a SMILES comes first, the peptide text is derived from it. [ ]: non-standard residue; d: D form. X1 = O=C([C@H](Cc1c[nH]c(=S)[nH]1)N[*:1])[*:2]

Legend:
[1] = ABTS radical scavenging activity (UV-Vis, 734 nm); type: biochemical; conditions: for ABTS radical TEAC: Trolox equivalent antioxidant capacity, 10 min, PBS pH 7.2, average of three or more trials, ND = activity too low to be determined, TEAC close to zero; for ability to scavenge ABTS radical (in words): absorbance peak at 734 nm
Method: Measurement of 2,2′-azino-di-[3-ethylbenzthiazoline sulfonate (6)] (ABTS) radical scavenging activity. ABTS scavenging assays were performed according to previously published protocols with some modifications. A 10 mM stock solution of potassium persulfate was prepared in deionized water. A stock solution of ABTS was prepared by dissolving 7 mM ABTS and 2.45 mM potassium persulfate in deionized water. This solution was allowed to incubate at room temperature in the dark for 12-16 h to allow potassium persulfate to oxidize the ABTS. Following oxidation, the solution was a dark blue/green color. This solution was stable in the dark at room temperature for at least 48 h. This solution was diluted with 100 mM phosphate buffered saline, pH 7.2 so that the final absorbance was 0.70±0.02 at 734 nm. Stock solutions for all peptides and for Trolox were prepared in a range from 0.1 mM to 3.2 mM in 100 mM phosphate buffered saline, pH 7.2. To test the ability of Trolox and peptides to reduce the ABTS radical cation, samples were prepared with 990 μL of the diluted ABTS solution and 10 μL of each of the peptide or Trolox stock solutions. For every trial, one sample was prepared with 990 μL ABTS and 10 μL of buffer. The samples were allowed to incubate at room temperature in the dark for 10 min. The spectrophotometer was blanked with 1 mL of 100 mM phosphate buffered saline, pH 7.2 from 200-800 nm. Scans were taken for each of the samples and the change in absorbance at 734 nm was monitored. Every sample was run in triplicate and the results were averaged. The percentage of inhibition of ABTS oxidation was calculated using Equation 2.
(§1) [formula] where Acontrol is the absorbance of the control (ABTS and buffer only) and Asample is the absorbance at 734 nm of the test peptide/standard. A Trolox calibration curve was prepared with concentrations ranging from 1-32 μM (FIG. 14). Similar curves were prepared for each of the peptides (FIG. 14). These curves were used to calculate TEAC values for each of the peptides by calculating the ratio of peptide to Trolox to achieve the same percent reduction of ABTS.

[2] = DPPH radical scavenging activity (UV-Vis, 517 nm); type: biochemical; conditions: for DPPH Radical TEAC: Trolox equivalent antioxidant capacity, 50 μM DPPH, 15 min, pH 7.0, 60:40 ethanol:buffer, ND = activity too low to be determined, TEAC close to zero; for ability to scavenge DPPH radical (in words): absorbance peak at 517 nm
Method: Measurement of 2,2-diphenyl-1-picrylhydrazyl (DPPH) radical scavenging activity. DPPH activity assays were conducted according to procedures known in the art. A 1 mM stock solution of DPPH was prepared by dissolving DPPH in 95% ethanol. Peptide stock solutions were prepared at a concentration of 5 mM in 100 mM potassium phosphate buffer, pH 7.0 for each of the His- and 2-thioHis-containing peptides. 6-hydroxy-2,5,7,8-tetramethylchromane-2-carboxylic acid (Trolox) was used as a standard for antioxidant activity and a positive control. A 5 mM solution of Trolox in 100 mM potassium phosphate, pH 7.0 was prepared. A blank was prepared by mixing 600 μL of 95% ethanol with 400 μL of 100 mM potassium phosphate, pH 7.0 in a cuvette. This solution was used to blank the spectrophotometer from 200-800 nm. In each sample, a 60:40 ratio of ethanol:buffer was maintained. To test the ability of Trolox and the different peptides to reduce DPPH, 50 μM DPPH was combined with different concentrations of peptide or Trolox ranging from 5 μM to 500 μM and the total volume of each sample was adjusted to 1 mL with buffer and ethanol. The samples were allowed to incubate at room temperature in the dark for 15 min, after which each sample was scanned and changes in the absorbance at 517 nm were monitored. Trials were run in triplicate for each of the peptides and Trolox. For every trial, one sample was prepared with only 50 μM DPPH (no peptide or Trolox) to serve as a control. The percentage of inhibition of DPPH oxidation was calculated using Equation 1:
as §1, with “(DPPH” for “(ABTS”, “517” for “734”, “5-50” for “1-32”, “13).” for “14).”, “Trolox equivalent antioxidant capacity (TEAC)” for “TEAC”, “DPPH.” for “ABTS.”

[3] = Hydroxyl radical scavenging activity by room temperature EPR (Fenton reaction, DMPO spin trap); type: biochemical; conditions: for Hydroxyl Radical RSA (%): all analytes at 1 mM, potassium phosphate pH 7.4, average of three or more trials; for ability to scavenge ·OH (in words) / increase in ·OH scavenging ability on substituting 2-thioHis for His: 1 mM; for increase in ·OH scavenging ability on substituting 2-thioHis for His: difference of RSA versus His-containing counterpart
Method: Measurement of hydroxyl radical scavenging activity. Hydroxyl radical scavenging activity of peptides was measured with room temperature EPR spectroscopy according to known methods with some modifications. Hydroxyl radicals were generated by the iron-catalyzed Fenton Haber-Weiss reaction, and the generated hydroxyl radicals were reacted with the nitrone spin trap 5,5-dimethyl-1-pyrroline-N-oxide (DMPO). The resultant DMPO-OH adducts were detectable with EPR spectroscopy. The peptide (1 mM final concentration) was added to a solution containing: 24 mM DMPO, 0.8 mM FeSO4, and 0.8 mM H2O2 in 100 mM potassium phosphate buffer, pH 7.4 in a final reaction volume of 250 μL. This solution was immediately transferred into a 50 μL quartz capillary tube. After 5 min, the EPR spectrum was recorded using a Bruker X-band EPR spectrometer operating at 9.42 GHz. The experimental conditions employed were as follows: magnetic field, 336.5±10 mT; power, 2 mW; modulation amplitude, 2.00 G; time constant, 327.68 ms, modulation frequency, 100 kHz; receiver gain, 30 dB sweep time, 60 s. Trials were performed in triplicate for each peptide. The double integral of the EPR spectra was obtained and used to determine the signal intensity for each sample. The hydroxyl radical scavenging ability was calculated using Equation 3, in which H and H0 are relative peak height of radical signals with and without sample, respectively. [formula]

[4] = Low temperature (95 K) EPR of peptide-Cu(II) complexes; type: binding; conditions: from EPR spectra, not quantified
Method: Low temperature EPR studies. The ability of each peptide to bind Cu(II) was determined by low temperature (95 K) EPR spectroscopy using the methods known in the art with some modifications. Samples of 200 μM and 400 μM peptide were incubated for 10 min at room temperature with 200 μM CuCl2 in 100 mM potassium phosphate, pH 7.4. Following incubation, aliquots of each sample were transferred into 4 mm inner diameter quartz EPR tubes (Wilmad-LabGlass). The samples were frozen in liquid nitrogen and stored in liquid nitrogen prior to use. Control samples were prepared with only buffer and with 200 μM CuCl2 in potassium phosphate buffer. Low temperature EPR spectra were gathered with a Bruker EPR spectrometer operating at 9.42 GHz with the following parameters: scan range, 6000 G; field set, 3200 G; time constant, 164 ms; scan time, 60 s; modulation amplitude, 7.000 G; modulation frequency, 100 kHz; receiver gain, 30 dB; microwave power, 20 mW; and number of scans, 5.

Row | Molecule | ABTS radical TEAC [1] | DPPH Radical TEAC [2] | Hydroxyl Radical RSA (%) [3] [%] | ability to scavenge ·OH (in words) [3] | ability to scavenge DPPH radical (in words) [2] | increase in ·OH scavenging ability on substituting 2-thioHis for His [3] [%] | affinity for / binding of Cu(II) (in words) [4] | ability to scavenge ABTS radical (in words) [1]
1 | Cc1c(C)c2c(c(C)c1O)CCC(C)(C(=O)O)O2 (centres unmarked) [Trolox, 6-hydroxy-2,5,7,8-tetramethylchromane-2-carboxylic acid, reference compound] | 1.00 | 1.00 | – | – | – | – | – | –
2 | HGPLGPL [H-HGPLGPL-OH, reference compound] | – | – | 46.8 ± 1.3 | – | – | – | – | –
3 | NCCC(=O)N[C@@H](Cc1cnc[nH]1)C(=O)O [Carnosine, H-βAH-OH, reference compound] | – | – | 31.4 ± 4.2 | not a good ·OH scavenger | – | – | – | –
4 | NC(Cc1c[nH]c(=S)[nH]1)C(=O)O [2-thioHis, L-2-thiohistidine] | 1.50 ± 0.03 | 1.00 ± 0.02 | 56.0 ± 2.1 | – | same ability as Trolox | 7.5 | – | –
5 | H-βAthioH-OH [thioHcarnosine] | 2.25 ± 0.05 | 0.80 ± 0.01 | 43.5 ± 1.1 | less than 2-thioHis | – | 13 | higher affinity for Cu(II) than carnosine | –
6 | N[C@@H](Cc1c[nH]cn1)C(=O)O [His, histidine] | – | – | 48.5 ± 7.3 | – | – | – | – | –
7 | CC(C)C[C@H](NC(=O)[C@@H]1CCCN1C(=O)CNC(=O)[C@H](CC(C)C)NC(=O)[C@@H]1CCCN1C(=O)CNC(=O)[C@@H](N)Cc1c[nH]c(=S)[nH]1)C(=O)O [thioHGPLGPL, H-thioHGPLGPL-OH] (H-[X1]GPLGPL-OH) | 2.14 ± 0.02 | 0.95 ± 0.01 | 59.7 ± 3.0 | equivalent to 2-thioHis itself | – | 12 | – | –
8 | H-GthioHK-OH | 2.61 ± 0.01 | 0.95 ± 0.02 | 97.0 ± 0.3 | highest RSA of all compounds tested; also recorded: nearly completely abolishing the signal | completely reduce the DPPH and ABTS radicals | 31.6 | – | completely reduce the DPPH and ABTS radicals; also recorded: slightly higher TEAC value than the other 2-thioHis peptides
9 | H-GHK-OH [reference compound] | – | – | 65.4 ± 0.008 | – | only a slight decrease in the DPPH absorbance peak at 517 nm | – | – | no decrease in the ABTS absorbance peak at 734 nm
